Assay results published in US20260167619A2, “INDOLINE COMPOUNDS AND DERIVATIVES AS EGFR INHIBITORS” (BeOne Medicines I GmbH, priority 2020, published 2026).
pIC50: −log10 of the molar value.

What was measured:
[1] = target: T1, EGFR (aa668-1210, Invitrogen) (Homo sapiens, UniProt P00533); assay: Biochemical EGFR inhibition assay (TR-FRET), wild-type EGFR; details: ATP at Km, 15 min pre-incubation, 60 min reaction; read-out: WT (Km ATP) IC50
T1 construct: EGFR (aa668-1210, Invitrogen); purchased Invitrogen
Outline: (§1)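 First the enzyme sat with compound for 15 minutes at room temperature, then ATP (Km level) and biotinylated poly-GT were added for a 60 min reaction. Stop solution with EDTA, anti-pTyr cryptate and streptavidin-XL665 followed for 1 h before TR-FRET reading.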

BaF3-LR_TM_CS cells = BaF3-LR_TM_CS cells (Homo sapiens, UniProt P00533, T790M/C797S/L858R, cells depend on it); assay: Cell antiproliferation assay (CellTiter-Glo), BaF3-LR_TM_CS; assay type: cell-based; details: 48 h treatment, read-out: BaF3-LR_TM_CS IC50
Outline: (§2)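 Cells exposed 48 h to 8 doses from 5-fold serial dilution (500× DMSO stocks from 5 mM), final 0.2% DMSO. Viability by CellTiter-Glo luminescence; IC50 from four-parameter fit of percent inhibition versus concentration.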

BaF3-Del_TM_CS cells = BaF3-Del_TM_CS cells (Homo sapiens, UniProt P00533, T790M/C797S, cells depend on it, form not given); assay: Cell antiproliferation assay (CellTiter-Glo), BaF3-Del_TM_CS; assay type: cell-based; details: 48 h treatment, read-out: BaF3-Del_TM_CS IC50
Outline: as §2

BaF3-WT cells = BaF3-WT cells (Homo sapiens, UniProt P00533); assay: Cell antiproliferation assay (CellTiter-Glo), BaF3-WT; assay type: cell-based; details: 48 h treatment, read-out: BaF3-WT IC50
Outline: as §2

[2] = target: T2, EGFR(L858R_T790M_C797S) (aa695-end, Invitrogen) (Homo sapiens, UniProt P00533, C797S/L858R/T790M); assay: Biochemical EGFR inhibition assay (TR-FRET), L858R/T790M/C797S mutant; details: ATP at Km, 15 min pre-incubation, 60 min reaction; read-out: LR_TM_CS (Km ATP) IC50
T2 construct: purchased Invitrogen
Outline: as §1

[3] = target: EGFR(Dell9_T790M_C797S) (aa 669-1210, in house) (Homo sapiens, UniProt P00533, T790M/C797S, form not given); assay: Biochemical EGFR inhibition assay (TR-FRET), Del19/T790M/C797S mutant; details: ATP at Km, 15 min pre-incubation, 60 min reaction; read-out: Del_TM_CS (Km ATP) IC50
Outline: as §1

Chain of BaF3-LR_TM_CS cells (P00533 whole entry T790M/C797S/L858R): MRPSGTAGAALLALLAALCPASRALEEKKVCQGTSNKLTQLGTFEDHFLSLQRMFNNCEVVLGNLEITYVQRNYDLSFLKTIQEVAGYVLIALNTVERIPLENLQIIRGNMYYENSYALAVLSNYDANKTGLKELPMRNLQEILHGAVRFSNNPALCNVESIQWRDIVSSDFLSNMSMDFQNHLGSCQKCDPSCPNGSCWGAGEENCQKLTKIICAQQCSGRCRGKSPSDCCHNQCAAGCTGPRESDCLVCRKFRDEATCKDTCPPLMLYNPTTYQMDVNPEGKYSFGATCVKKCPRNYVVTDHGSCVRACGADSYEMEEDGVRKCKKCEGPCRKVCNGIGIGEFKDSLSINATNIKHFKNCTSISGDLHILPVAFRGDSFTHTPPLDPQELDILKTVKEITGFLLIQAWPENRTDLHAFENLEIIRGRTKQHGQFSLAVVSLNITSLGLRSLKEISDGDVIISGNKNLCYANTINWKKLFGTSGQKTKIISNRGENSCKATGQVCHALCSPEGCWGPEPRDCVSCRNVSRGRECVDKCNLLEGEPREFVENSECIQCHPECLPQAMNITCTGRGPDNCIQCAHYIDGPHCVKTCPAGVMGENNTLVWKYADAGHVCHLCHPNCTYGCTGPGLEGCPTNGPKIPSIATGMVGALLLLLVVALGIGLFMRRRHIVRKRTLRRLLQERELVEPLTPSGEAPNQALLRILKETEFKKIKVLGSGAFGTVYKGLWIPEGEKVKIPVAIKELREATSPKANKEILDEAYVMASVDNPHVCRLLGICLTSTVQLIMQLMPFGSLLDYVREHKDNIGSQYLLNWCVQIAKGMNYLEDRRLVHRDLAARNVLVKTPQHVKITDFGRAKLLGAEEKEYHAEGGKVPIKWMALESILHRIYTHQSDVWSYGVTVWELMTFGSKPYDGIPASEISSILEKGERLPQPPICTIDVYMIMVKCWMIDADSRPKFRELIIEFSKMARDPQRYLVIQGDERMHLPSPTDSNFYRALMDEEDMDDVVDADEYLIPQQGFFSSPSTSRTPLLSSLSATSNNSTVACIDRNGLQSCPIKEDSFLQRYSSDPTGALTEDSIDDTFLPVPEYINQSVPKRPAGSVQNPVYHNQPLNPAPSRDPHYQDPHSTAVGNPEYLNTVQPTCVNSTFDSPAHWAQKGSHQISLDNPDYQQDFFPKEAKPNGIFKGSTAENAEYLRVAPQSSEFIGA
T1 sequence (P00533 668-1210): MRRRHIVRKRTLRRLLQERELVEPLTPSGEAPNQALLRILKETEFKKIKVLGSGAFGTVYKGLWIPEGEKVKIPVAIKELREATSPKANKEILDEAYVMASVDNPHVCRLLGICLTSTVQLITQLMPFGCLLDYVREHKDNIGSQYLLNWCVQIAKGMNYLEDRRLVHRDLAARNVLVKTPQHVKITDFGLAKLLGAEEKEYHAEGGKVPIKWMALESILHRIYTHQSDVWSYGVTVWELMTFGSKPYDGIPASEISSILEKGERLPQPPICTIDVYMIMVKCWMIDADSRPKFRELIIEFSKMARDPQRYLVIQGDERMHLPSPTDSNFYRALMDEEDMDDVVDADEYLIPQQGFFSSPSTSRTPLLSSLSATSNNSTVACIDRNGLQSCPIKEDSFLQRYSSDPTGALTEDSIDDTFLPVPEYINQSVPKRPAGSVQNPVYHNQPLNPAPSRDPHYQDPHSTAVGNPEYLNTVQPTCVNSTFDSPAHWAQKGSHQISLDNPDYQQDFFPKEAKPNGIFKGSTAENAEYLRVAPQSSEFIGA
Chain of EGFR(Dell9_T790M_C797S) (aa 669-1210, in house) (P00533 with tags, fused parts or gaps DEL746-750/T790M/C797S, form open): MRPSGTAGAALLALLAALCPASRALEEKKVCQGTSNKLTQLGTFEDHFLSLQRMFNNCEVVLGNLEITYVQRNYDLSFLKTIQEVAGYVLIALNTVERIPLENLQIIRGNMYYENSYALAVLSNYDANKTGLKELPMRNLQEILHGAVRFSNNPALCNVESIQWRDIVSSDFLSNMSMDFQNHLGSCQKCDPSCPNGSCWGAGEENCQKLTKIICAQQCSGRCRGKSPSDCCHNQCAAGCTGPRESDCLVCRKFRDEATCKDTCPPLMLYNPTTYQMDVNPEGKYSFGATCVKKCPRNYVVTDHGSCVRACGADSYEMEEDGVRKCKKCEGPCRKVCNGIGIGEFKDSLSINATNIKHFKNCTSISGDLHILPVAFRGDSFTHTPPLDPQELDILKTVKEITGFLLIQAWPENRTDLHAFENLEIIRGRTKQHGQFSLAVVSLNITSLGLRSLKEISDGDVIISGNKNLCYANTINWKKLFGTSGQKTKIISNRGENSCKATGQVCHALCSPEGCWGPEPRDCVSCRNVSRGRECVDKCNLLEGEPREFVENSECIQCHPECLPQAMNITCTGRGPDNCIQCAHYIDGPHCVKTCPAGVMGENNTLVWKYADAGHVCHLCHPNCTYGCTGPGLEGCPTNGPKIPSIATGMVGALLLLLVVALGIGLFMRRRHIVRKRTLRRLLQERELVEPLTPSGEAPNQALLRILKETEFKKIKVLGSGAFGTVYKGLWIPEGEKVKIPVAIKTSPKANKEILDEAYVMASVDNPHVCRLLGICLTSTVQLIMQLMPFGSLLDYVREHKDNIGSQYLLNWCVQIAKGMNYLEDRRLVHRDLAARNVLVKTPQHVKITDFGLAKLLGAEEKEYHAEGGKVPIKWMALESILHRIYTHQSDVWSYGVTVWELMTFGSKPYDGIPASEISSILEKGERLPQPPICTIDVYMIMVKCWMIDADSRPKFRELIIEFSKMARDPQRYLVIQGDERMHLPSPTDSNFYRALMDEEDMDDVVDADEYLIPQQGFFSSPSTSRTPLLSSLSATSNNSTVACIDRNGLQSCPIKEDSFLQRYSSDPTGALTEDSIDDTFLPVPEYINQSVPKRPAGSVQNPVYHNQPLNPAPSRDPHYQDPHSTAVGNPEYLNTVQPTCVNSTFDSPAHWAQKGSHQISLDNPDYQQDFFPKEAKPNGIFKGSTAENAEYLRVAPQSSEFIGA
Chain of BaF3-Del_TM_CS cells (P00533 with tags, fused parts or gaps DEL746-750/T790M/C797S, form open): as above
T2 sequence (P00533 695-1210 T790M/C797S/L858R): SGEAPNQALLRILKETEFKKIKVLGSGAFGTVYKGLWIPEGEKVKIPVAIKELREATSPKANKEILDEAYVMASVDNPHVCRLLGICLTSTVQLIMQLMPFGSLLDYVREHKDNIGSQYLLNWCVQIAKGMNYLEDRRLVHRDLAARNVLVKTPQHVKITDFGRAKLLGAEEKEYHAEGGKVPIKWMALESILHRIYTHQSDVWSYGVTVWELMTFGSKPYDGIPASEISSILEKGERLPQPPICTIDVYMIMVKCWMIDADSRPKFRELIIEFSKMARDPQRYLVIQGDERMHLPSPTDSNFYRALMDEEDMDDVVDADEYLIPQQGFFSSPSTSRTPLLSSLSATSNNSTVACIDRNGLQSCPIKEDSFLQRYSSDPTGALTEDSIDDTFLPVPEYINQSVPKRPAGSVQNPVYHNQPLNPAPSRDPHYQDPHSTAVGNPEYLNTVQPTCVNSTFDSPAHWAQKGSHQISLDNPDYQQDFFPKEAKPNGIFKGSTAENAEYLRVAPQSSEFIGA

Row | SMILES | pIC50 [1] | GI50 (BaF3-LR_TM_CS cells) [nM] | GI50 (BaF3-Del_TM_CS cells) [nM] | GI50 (BaF3-WT cells) [nM] | pIC50 [2] | pIC50 [3]
1 | COc1cc(N2CCC(N3CCN(C)CC3)CC2)ccc1Nc1nc2c(c(Nc3cccc4c3N(S(C)(=O)=O)CC4)n1)CCC2 [Example 74, N^2-(2-methoxy-4-(4-(4-methylpiperazin-1-yl)piperidin-1-yl)phenyl)-N^4-(1-(methylsulfonyl)indolin-7-yl)-6,7-dihydro-5H-cyclopenta[d]pyrimidine-2,4-diamine] | 6.28 | 617 | 436 | 2350 | 7.28 | 6.88
2 | COc1cc(N2CCC(N3CCN(C)CC3)CC2)ccc1Nc1nc(Nc2cccc3c2N(S(C)(=O)=O)CC3)c2sccc2n1 [Example 75, N^2-(2-methoxy-4-(4-(4-methylpiperazin-1-yl)piperidin-1-yl)phenyl)-N^4-(1-(methylsulfonyl)indolin-7-yl)thieno[3,2-d]pyrimidine-2,4-diamine] | 6.83 | 459 | 349 | 1200 | 8.07 | 8.06
3 | CCN1CCN(C2CCN(c3ccc(Nc4nc(Nc5cccc6c5N(S(C)(=O)=O)CC6)c5cn[nH]c5n4)cc3F)CC2)CC1 [Example 76, N^6-(4-(4-(4-ethylpiperazin-1-yl)piperidin-1-yl)-3-fluorophenyl)-N^4-(1-(methylsulfonyl)indolin-7-yl)-1H-pyrazolo[3,4-d]pyrimidine-4,6-diamine] | 9.22 | 350 | 90.5 | 987 | 8.89 | 9.06
4 | CCN1CCN(C2CCN(c3ccc(Nc4nc(Nc5cccc6c5N(S(C)(=O)=O)CC6)c5cc[nH]c5n4)cc3F)CC2)CC1 [Example 77, N^2-(4-(4-(4-ethylpiperazin-1-yl)piperidin-1-yl)-3-fluorophenyl)-N^4-(1-(methylsulfonyl)indolin-7-yl)-7H-pyrrolo[2,3-d]pyrimidine-2,4-diamine] | 7.74 | 62 | 8.3 | 388 | 9.54 | 9.48
5 | CCN1CCN(C2CCN(c3ccc(Nc4nc(Nc5ccc(F)c6c5N(S(C)(=O)=O)CC65CCC5)c5cc[nH]c5n4)cc3F)CC2)CC1 [Example 83, N^2-(4-(4-(4-ethylpiperazin-1-yl)piperidin-1-yl)-3-fluorophenyl)-N^4-(4′-fluoro-1′-(methylsulfonyl)spiro[cyclobutane-1,3′-indolin]-7′-yl)-7H-pyrrolo[2,3-d]pyrimidine-2,4-diamine] | 5.14 | 1040 | 707 | 1860 | 7.38 | 7.43
6 | CN1CCN(c2ccc(Nc3nc(Nc4cccc5c4N(S(C)(=O)=O)CC5)c4cc[nH]c4n3)cc2F)CC1 [Example 84, N^2-(3-fluoro-4-(4-methylpiperazin-1-yl)phenyl)-N^4-(1-(methylsulfonyl)indolin-7-yl)-7H-pyrrolo[2,3-d]pyrimidine-2,4-diamine] | 6.82 | 78 | 10.7 | 335 | 8.82 | 8.80
7 | CN1CCN(c2ccc(Nc3nc(Nc4cccc5c4N(S(C)(=O)=O)CC5)c4cc[nH]c4n3)c(F)c2F)CC1 [Example 85, N^2-(2,3-difluoro-4-(4-methylpiperazin-1-yl)phenyl)-N^4-(1-(methylsulfonyl)indolin-7-yl)-7H-pyrrolo[2,3-d]pyrimidine-2,4-diamine] | 5.89 | 141 | 91.6 | 274 | 8.05 | 7.82
8 | COc1cc(N2CCC(N3CCN(C)CC3)CC2)ccc1Nc1nc(Nc2cccc3c2N(S(C)(=O)=O)CC3)c2cc[nH]c2n1 [Example 90, N^2-(2-methoxy-4-(4-(4-methylpiperazin-1-yl)piperidin-1-yl)phenyl)-N^4-(1-(methylsulfonyl)indolin-7-yl)-7H-pyrrolo[2,3-d]pyrimidine-2,4-diamine] | 7.36 | 191 | 87.5 | 2560 | 8.98 | 8.82
9 | COc1cc(N2CCC(N3CCN(C)CC3)CC2)c(C)cc1Nc1nc(Nc2cccc3c2N(S(C)(=O)=O)CC3)c2cc[nH]c2n1 [Example 91, N^2-(2-methoxy-5-methyl-4-(4-(4-methylpiperazin-1-yl)piperidin-1-yl)phenyl)-N^4-(1-(methylsulfonyl)indolin-7-yl)-7H-pyrrolo[2,3-d]pyrimidine-2,4-diamine] | 7.77 | 40.5 | 12.8 | 949 | 9.38 | 9.03
10 | Cc1cc(Nc2nc(Nc3cccc4c3N(S(C)(=O)=O)CC4)c3cc[nH]c3n2)c(OC(C)C)cc1N1CCC(N2CCN(C)CC2)CC1 [Example 92, N^2-(2-isopropoxy-5-methyl-4-(4-(4-methylpiperazin-1-yl)piperidin-1-yl)phenyl)-N^4-(1-(methylsulfonyl)indolin-7-yl)-7H-pyrrolo[2,3-d]pyrimidine-2,4-diamine] | 5.82 | 504 | 225 | 1400 | 7.77 | 7.85
11 | CCOc1cc(N2CCC(N3CCN(C)CC3)CC2)c(C)cc1Nc1nc(Nc2cccc3c2N(S(C)(=O)=O)CC3)c2cc[nH]c2n1 [Example 93, N^2-(2-ethoxy-5-methyl-4-(4-(4-methylpiperazin-1-yl)piperidin-1-yl)phenyl)-N^4-(1-(methylsulfonyl)indolin-7-yl)-7H-pyrrolo[2,3-d]pyrimidine-2,4-diamine] | 6.96 | 218 | 54.1 | 1520 | 8.82 | 8.59
12 | CCc1cc(Nc2nc(Nc3cccc4c3N(S(C)(=O)=O)CC4)c3cc[nH]c3n2)c(OC)cc1N1CCC(N2CCN(C)CC2)CC1 [Example 94, N^2-(5-ethyl-2-methoxy-4-(4-(4-methylpiperazin-1-yl)piperidin-1-yl)phenyl)-N^4-(1-(methylsulfonyl)indolin-7-yl)-7H-pyrrolo[2,3-d]pyrimidine-2,4-diamine] | 7.54 | 84.8 | 10.9 | 640 | 8.96 | 8.82
13 | COc1cc(N2CCC(N3CCN(C)CC3)CC2)c(Cl)cc1Nc1nc(Nc2cccc3c2N(S(C)(=O)=O)CC3)c2cc[nH]c2n1 [Example 95, N^2-(5-chloro-2-methoxy-4-(4-(4-methylpiperazin-1-yl)piperidin-1-yl)phenyl)-N^4-(1-(methylsulfonyl)indolin-7-yl)-7H-pyrrolo[2,3-d]pyrimidine-2,4-diamine] | 7.55 | 83.8 | 9.58 | 1960 | 9.10 | 8.85
14 | COc1cc(N2CCC3(CCN(C)CC3)CC2)c(Cl)cc1Nc1nc(Nc2cccc3c2N(S(C)(=O)=O)CC3)c2cc[nH]c2n1 [Example 96, N^2-(5-chloro-2-methoxy-4-(9-methyl-3,9-diazaspiro[5.5]undecan-3-yl)phenyl)-N^4-(1-(methylsulfonyl)indolin-7-yl)-7H-pyrrolo[2,3-d]pyrimidine-2,4-diamine] | 6.96 | 66.5 | 29.3 | 1480 | 8.85 | 8.77
15 | COc1cc(N2CC3(CN(C)C3)C2)c(F)cc1Nc1nc(Nc2cccc3c2N(S(C)(=O)=O)CC3)c2cc[nH]c2n1 [Example 97, N^2-(5-fluoro-2-methoxy-4-(6-methyl-2,6-diazaspiro[3.3]heptan-2-yl)phenyl)-N^4-(1-(methylsulfonyl)indolin-7-yl)-7H-pyrrolo[2,3-d]pyrimidine-2,4-diamine] | 6.69 | 240 | 104 | 1930 | 8.62 | 8.37
16 | COc1cc(N2CCC(N3CCN(C)CC3)CC2)c(F)cc1Nc1nc(Nc2cccc3c2N(S(C)(=O)=O)CC3)c2cc[nH]c2n1 [Example 98, N^2-(5-fluoro-2-methoxy-4-(4-(4-methylpiperazin-1-yl)piperidin-1-yl)phenyl)-N4-(1-(methylsulfonyl)indolin-7-yl)-7H-pyrrolo[2,3-d]pyrimidine-2,4-diamine] | 7.66 | 76.5 | 24.7 | 1460 | 9.25 | 9.02
17 | COc1cc(C2CCN(C)CC2)c(C)cc1Nc1nc(Nc2cccc3c2N(S(C)(=O)=O)CC3)c2cc[nH]c2n1 [Example 99, N^2-(2-methoxy-5-methyl-4-(1-methylpiperidin-4-yl)phenyl)-N^4-(1-(methylsulfonyl)indolin-7-yl)-7H-pyrrolo[2,3-d]pyrimidine-2,4-diamine] | 6.37 | 399 | 59 | 1970 | 8.52 | 8.07
